Experimental data from publication PMC5766581, “NF-κB inducing kinase is a therapeutic target for systemic lupus erythematosus” (Nature Communications, 2018).

What was measured:
Assay in all cases: SelectScreen kinase panel
Format in all cases: biochemical
AKT2 = biological target: T1, AKT2 (Homo sapiens, UniProt P31751)
T1 construct: purchased Invitrogen / ThermoFisher SelectScreen
Procedure: (§1) The ability of NIK to catalyze the hydrolysis of adenosine-5′-triphosphate (ATP) was monitored using the Transcreener ADP (adenosine-5′-diphosphate) assay (Bell Brook Labs, Fitchburg, WI). Purified human NIK kinase domain (a.a. 340–694) (0.5 nM) or mouse NIK kinase domain (a.a. 329–675) (1 nM) derived from a baculovirus-infected insect cell expression system was incubated with test compounds for 0.5–2 h in 50 mM HEPES buffer (pH 7.2) containing 10 mM MgCl2, 2 mM dithiothreitol, 10 μM ATP, 0.01% Triton X-100, 0.1% gamma-globulins from bovine blood, 1% dimethylsulfoxide (DMSO), 7 μg/mL ADP antibody and 5 nM ADP-MR121 633 tracer. Reactions were quenched by the addition of 20 mM EDTA and 0.01% Brij 35. The tracer bound to the antibody was displaced by the ADP generated during the NIK reaction, which caused a decrease in fluorescence polarization that was measured by laser excitation at 633 nm with a Fluorescence Correlation Spectroscopy Plus reader (Evotec AG). Equilibrium dissociation constant (Ki) values for NIK inhibitors are calculated from plots of activity vs. inhibitor concentration using Morrison’s quadratic equation that accounts for the potential of tight binding, and by also applying the conversion factor that accounted for competitive inhibition and the concentration of substrate used in the assay relative to its Michaelis constant (Km). The Ki values with hPKD1 (PKCμ) were determined using the same assay conditions as for NIK. Ki measurements for hKHS1 and hLRRK2, as well as broad kinase selectivity profiling for SMI1, were carried out by Invitrogen using their SelectScreen kinase assay panel (ThermoFisher Scientific, Madison, WI). The vendor offered two types of kinase activity assays, a peptide phosphorylation assay (Z′-LYTE) and an ADP quantitation assay (Adapta), as well as one type of kinase ATP site competitive binding assay (LanthaScreen). See vendor web site for technology and protocol details for each specific kinase assay.
(§2) The average % Inhibition of each kinase is reported (Supplementary Table 1).

ARK5 = biological target: T2, ARK5 (Homo sapiens, UniProt O60285)
T2 construct: purchased Invitrogen / ThermoFisher SelectScreen
Procedure: as §1, §2

Abl = biological target: T3, Abl (Homo sapiens, UniProt P00519)
T3 construct: purchased Invitrogen / ThermoFisher SelectScreen
Procedure: as §1, §2

Aurora_A = biological target: T4, Aurora_A (Homo sapiens, UniProt O14965)
T4 construct: purchased Invitrogen / ThermoFisher SelectScreen
Procedure: as §1, §2

CamKII_alpha = biological target: T5, CamKII_alpha (Homo sapiens, UniProt Q9UQM7)
T5 construct: purchased Invitrogen / ThermoFisher SelectScreen
Procedure: as §1, §2

DAPK1 = biological target: T6, DAPK1 (Homo sapiens, UniProt P53355)
T6 construct: purchased Invitrogen / ThermoFisher SelectScreen
Procedure: as §1, §2

DNA-PK = biological target: T7, DNA-PK (Homo sapiens, UniProt P78527)
T7 construct: purchased Invitrogen / ThermoFisher SelectScreen
Procedure: as §1, §2

DYRK3 = biological target: T8, DYRK3 (Homo sapiens, UniProt O43781)
T8 construct: purchased Invitrogen / ThermoFisher SelectScreen
Procedure: as §1, §2

EphA8 = biological target: T9, EphA8 (Homo sapiens, UniProt P29322)
T9 construct: purchased Invitrogen / ThermoFisher SelectScreen
Procedure: as §1, §2

EphB3 = biological target: T10, EphB3 (Homo sapiens, UniProt P54753)
T10 construct: purchased Invitrogen / ThermoFisher SelectScreen
Procedure: as §1, §2

FAK = biological target: T11, FAK (Homo sapiens, UniProt Q05397)
T11 construct: purchased Invitrogen / ThermoFisher SelectScreen
Procedure: as §1, §2

Flt3 = biological target: T12, Flt3 (Homo sapiens, UniProt P36888)
T12 construct: purchased Invitrogen / ThermoFisher SelectScreen
Procedure: as §1, §2

GRK3 = biological target: T13, GRK3 (Homo sapiens, UniProt P35626)
T13 construct: purchased Invitrogen / ThermoFisher SelectScreen
Procedure: as §1, §2

GSK3_beta = biological target: T14, GSK3_beta (Homo sapiens, UniProt P49841)
T14 construct: purchased Invitrogen / ThermoFisher SelectScreen
Procedure: as §1, §2

JAK1 = biological target: T15, JAK1 (Homo sapiens, UniProt P23458)
T15 construct: purchased Invitrogen / ThermoFisher SelectScreen
Procedure: as §1, §2

JNK1_alpha1 = biological target: T16, JNK1_alpha1 (Homo sapiens, UniProt P45983)
T16 construct: purchased Invitrogen / ThermoFisher SelectScreen
Procedure: as §1, §2

MARK1 = biological target: T17, MARK1 (Homo sapiens, UniProt Q9P0L2)
T17 construct: purchased Invitrogen / ThermoFisher SelectScreen
Procedure: as §1, §2

MSK1 = biological target: T18, MSK1 (Homo sapiens, UniProt O75582)
T18 construct: purchased Invitrogen / ThermoFisher SelectScreen
Procedure: as §1, §2

MST1 = biological target: T19, MST1 (Homo sapiens, UniProt Q13043)
T19 construct: purchased Invitrogen / ThermoFisher SelectScreen
Procedure: as §1, §2

Mink1 = biological target: T20, Mink1 (Homo sapiens, UniProt Q8N4C8)
T20 construct: purchased Invitrogen / ThermoFisher SelectScreen
Procedure: as §1, §2

PKC_beta1 = biological target: T21, PKC_beta1 (Homo sapiens, UniProt P05771)
T21 construct: purchased Invitrogen / ThermoFisher SelectScreen
Procedure: as §1, §2

PKC_zeta = biological target: T22, PKC_zeta (Homo sapiens, UniProt Q05513)
T22 construct: purchased Invitrogen / ThermoFisher SelectScreen
Procedure: as §1, §2

PKD1 = biological target: T23, PKD1 (Homo sapiens, UniProt Q15139); conditions: NIK SMI1 1 µM; ATP Km app
T23 construct: purchased Invitrogen / ThermoFisher SelectScreen
Procedure: as §1, §2

PKD2 = biological target: T24, PKD2 (Homo sapiens, UniProt Q9BZL6)
T24 construct: purchased Invitrogen / ThermoFisher SelectScreen
Procedure: as §1, §2

PRAK = biological target: T25, PRAK (Homo sapiens, UniProt Q8IW41)
T25 construct: purchased Invitrogen / ThermoFisher SelectScreen
Procedure: as §1, §2

ROCK1 = biological target: T26, ROCK1 (Homo sapiens, UniProt Q13464)
T26 construct: purchased Invitrogen / ThermoFisher SelectScreen
Procedure: as §1, §2

RSK2 = biological target: T27, RSK2 (Homo sapiens, UniProt P51812)
T27 construct: purchased Invitrogen / ThermoFisher SelectScreen
Procedure: as §1, §2

SGK3 = biological target: T28, SGK3 (Homo sapiens, UniProt Q96BR1)
T28 construct: purchased Invitrogen / ThermoFisher SelectScreen
Procedure: as §1, §2

Syk = biological target: T29, Syk (Homo sapiens, UniProt P43405)
T29 construct: purchased Invitrogen / ThermoFisher SelectScreen
Procedure: as §1, §2

TYK2 = biological target: T30, TYK2 (Homo sapiens, UniProt P29597)
T30 construct: purchased Invitrogen / ThermoFisher SelectScreen
Procedure: as §1, §2

mTOR = biological target: T31, mTOR (Homo sapiens, UniProt P42345)
T31 construct: purchased Invitrogen / ThermoFisher SelectScreen
Procedure: as §1, §2

p70S6K = biological target: T32, p70S6K (Homo sapiens, UniProt P23443)
T32 construct: purchased Invitrogen / ThermoFisher SelectScreen
Procedure: as §1, §2

T23 sequence (Q15139 whole entry): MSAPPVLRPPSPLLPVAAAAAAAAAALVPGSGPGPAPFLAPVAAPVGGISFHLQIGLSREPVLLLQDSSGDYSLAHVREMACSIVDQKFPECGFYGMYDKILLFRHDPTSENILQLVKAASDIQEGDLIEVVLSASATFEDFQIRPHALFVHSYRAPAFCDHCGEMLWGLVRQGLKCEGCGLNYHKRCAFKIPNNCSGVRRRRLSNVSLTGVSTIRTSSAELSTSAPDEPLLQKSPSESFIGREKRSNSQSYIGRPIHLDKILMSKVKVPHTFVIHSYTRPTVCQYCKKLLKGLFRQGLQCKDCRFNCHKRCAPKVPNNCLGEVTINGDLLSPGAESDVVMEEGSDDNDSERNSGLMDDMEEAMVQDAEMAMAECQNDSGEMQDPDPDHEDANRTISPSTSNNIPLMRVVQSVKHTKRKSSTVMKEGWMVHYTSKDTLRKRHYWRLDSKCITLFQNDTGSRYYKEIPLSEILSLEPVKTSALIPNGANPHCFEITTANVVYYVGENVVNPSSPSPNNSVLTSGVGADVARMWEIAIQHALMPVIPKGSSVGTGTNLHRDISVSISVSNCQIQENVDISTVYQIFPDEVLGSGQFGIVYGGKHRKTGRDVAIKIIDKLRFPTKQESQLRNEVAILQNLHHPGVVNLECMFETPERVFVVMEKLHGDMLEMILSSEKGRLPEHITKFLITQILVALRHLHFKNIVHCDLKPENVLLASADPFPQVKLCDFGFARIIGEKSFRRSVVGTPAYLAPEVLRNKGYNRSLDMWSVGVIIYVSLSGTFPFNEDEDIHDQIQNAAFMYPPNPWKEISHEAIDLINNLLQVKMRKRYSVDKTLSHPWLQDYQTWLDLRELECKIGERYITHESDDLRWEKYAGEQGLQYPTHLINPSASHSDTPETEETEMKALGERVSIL
T13 sequence (P35626 whole entry): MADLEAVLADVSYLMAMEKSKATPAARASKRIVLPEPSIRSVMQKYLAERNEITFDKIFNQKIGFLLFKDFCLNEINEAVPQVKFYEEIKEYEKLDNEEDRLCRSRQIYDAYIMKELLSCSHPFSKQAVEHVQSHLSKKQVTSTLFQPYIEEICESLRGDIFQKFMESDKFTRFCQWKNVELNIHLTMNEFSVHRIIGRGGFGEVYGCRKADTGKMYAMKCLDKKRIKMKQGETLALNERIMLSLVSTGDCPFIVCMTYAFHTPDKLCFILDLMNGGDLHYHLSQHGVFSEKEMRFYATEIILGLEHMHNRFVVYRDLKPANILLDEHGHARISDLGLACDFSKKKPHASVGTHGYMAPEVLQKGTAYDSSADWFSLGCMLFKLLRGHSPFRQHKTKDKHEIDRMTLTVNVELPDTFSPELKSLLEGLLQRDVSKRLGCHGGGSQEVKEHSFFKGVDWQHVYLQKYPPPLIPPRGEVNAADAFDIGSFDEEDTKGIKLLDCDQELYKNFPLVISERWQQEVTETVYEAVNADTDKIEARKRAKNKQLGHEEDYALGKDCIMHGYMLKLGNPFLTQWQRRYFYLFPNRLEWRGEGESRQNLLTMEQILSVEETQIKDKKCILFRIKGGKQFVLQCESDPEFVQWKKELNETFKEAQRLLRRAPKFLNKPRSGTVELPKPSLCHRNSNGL
T9 sequence (P29322 28-1005): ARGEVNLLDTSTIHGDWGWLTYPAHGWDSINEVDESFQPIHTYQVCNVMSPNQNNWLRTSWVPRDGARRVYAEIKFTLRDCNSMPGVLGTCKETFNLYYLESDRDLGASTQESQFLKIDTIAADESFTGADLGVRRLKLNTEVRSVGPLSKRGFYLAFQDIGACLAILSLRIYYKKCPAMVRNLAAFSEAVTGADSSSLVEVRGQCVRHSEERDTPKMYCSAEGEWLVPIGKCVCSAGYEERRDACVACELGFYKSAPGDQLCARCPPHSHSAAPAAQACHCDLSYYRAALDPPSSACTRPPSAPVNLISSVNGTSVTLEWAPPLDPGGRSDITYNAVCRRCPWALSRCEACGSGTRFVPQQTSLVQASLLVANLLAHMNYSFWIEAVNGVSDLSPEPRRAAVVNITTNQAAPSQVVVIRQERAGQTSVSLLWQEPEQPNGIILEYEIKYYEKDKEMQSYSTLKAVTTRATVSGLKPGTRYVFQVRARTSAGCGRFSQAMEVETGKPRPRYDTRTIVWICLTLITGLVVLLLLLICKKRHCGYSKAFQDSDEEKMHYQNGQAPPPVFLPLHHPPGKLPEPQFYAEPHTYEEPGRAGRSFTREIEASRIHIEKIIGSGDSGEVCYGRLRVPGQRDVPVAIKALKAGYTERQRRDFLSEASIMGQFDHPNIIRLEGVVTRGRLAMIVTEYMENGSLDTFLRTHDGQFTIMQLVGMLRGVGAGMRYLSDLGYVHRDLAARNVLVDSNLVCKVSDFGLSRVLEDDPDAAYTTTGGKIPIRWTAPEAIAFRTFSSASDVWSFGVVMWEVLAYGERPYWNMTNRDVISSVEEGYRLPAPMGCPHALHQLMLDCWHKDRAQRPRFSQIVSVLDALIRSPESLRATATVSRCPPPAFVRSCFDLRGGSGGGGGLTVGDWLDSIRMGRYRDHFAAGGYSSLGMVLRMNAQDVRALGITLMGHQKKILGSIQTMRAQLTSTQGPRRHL
T22 sequence (Q05513 whole entry): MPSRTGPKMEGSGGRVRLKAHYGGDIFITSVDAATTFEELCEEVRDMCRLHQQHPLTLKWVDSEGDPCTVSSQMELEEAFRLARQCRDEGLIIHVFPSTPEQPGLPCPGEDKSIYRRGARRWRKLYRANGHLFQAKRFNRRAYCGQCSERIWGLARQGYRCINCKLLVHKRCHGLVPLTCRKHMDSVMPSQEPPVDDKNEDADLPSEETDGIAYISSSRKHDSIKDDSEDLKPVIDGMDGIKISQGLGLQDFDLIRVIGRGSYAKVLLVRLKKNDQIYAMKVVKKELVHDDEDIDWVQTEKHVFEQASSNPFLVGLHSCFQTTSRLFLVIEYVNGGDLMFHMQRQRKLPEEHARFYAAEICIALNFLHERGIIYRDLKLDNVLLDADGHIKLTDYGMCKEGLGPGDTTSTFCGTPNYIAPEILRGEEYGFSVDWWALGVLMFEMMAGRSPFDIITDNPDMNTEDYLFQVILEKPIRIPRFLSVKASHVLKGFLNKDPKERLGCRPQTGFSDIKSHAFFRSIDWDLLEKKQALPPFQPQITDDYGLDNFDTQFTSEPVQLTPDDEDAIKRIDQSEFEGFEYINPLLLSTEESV
T16 sequence (P45983 1-384 isoform P45983-2): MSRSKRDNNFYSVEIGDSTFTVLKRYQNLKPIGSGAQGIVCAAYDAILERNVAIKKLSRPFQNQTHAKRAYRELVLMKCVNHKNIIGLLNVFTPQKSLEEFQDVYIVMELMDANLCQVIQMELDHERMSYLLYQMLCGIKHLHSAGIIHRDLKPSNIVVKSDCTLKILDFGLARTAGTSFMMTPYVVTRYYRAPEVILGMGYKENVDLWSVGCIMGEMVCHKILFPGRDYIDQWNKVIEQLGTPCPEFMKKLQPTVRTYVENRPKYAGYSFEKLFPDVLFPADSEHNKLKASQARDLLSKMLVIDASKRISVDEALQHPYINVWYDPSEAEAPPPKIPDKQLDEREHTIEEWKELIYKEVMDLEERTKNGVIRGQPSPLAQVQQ
T19 sequence (Q13043 whole entry): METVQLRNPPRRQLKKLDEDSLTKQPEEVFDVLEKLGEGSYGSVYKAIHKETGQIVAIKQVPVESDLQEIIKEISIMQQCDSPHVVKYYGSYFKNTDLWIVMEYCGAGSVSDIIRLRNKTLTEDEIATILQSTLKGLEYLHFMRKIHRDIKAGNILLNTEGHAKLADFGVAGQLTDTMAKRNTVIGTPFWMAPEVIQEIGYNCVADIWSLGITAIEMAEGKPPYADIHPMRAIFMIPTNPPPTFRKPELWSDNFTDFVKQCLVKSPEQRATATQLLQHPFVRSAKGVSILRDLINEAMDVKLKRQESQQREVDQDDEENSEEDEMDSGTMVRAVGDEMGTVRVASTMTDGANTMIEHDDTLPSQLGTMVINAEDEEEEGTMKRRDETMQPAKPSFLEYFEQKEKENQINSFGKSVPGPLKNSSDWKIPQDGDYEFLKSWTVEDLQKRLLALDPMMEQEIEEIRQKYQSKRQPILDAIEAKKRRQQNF
T21 sequence (P05771 whole entry): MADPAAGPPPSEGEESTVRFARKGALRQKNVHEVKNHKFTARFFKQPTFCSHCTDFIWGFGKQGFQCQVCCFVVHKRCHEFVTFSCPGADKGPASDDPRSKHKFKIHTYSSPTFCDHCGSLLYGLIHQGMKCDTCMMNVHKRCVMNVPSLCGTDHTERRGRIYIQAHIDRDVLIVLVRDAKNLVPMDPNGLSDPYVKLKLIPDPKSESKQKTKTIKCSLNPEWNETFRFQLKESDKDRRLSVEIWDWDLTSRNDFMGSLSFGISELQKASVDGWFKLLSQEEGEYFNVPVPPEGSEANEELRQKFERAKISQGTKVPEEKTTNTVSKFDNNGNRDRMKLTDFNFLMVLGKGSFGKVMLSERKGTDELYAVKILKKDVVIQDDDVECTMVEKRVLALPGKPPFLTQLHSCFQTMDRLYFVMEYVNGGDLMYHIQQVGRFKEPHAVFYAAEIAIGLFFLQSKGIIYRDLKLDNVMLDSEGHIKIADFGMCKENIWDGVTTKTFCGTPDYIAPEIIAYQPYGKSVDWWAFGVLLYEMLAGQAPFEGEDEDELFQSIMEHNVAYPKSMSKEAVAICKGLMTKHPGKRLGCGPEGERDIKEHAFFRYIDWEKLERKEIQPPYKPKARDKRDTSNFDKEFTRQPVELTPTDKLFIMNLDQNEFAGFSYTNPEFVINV

COc1cc(C(N)=O)nc(-c2cccc(C#C[C@]3(O)CCN(C)C3=O)c2)c1 [NIK SMI1]
inhibition at 1 µM (AKT2): 13%
inhibition at 1 µM (ARK5): 1.5%
inhibition at 1 µM (Abl): 9.5%
inhibition at 1 µM (Aurora_A): 1%
inhibition at 1 µM (CamKII_alpha): 17.5%
inhibition at 1 µM (DAPK1): 15.1%
inhibition at 1 µM (DNA-PK): -4%
inhibition at 1 µM (DYRK3): 1.5%
inhibition at 1 µM (EphA8): -3.5%
inhibition at 1 µM (EphB3): 5.5%
inhibition at 1 µM (FAK): 10.5%
inhibition at 1 µM (Flt3): 13.5%
inhibition at 1 µM (GRK3): 1.5%
inhibition at 1 µM (GSK3_beta): 5%
inhibition at 1 µM (JAK1): -7%
inhibition at 1 µM (JNK1_alpha1): 5.6%
inhibition at 1 µM (MARK1): 16%
inhibition at 1 µM (MSK1): 7.5%
inhibition at 1 µM (MST1): 11.5%
inhibition at 1 µM (Mink1): 53.5%
inhibition at 1 µM (PKC_beta1): 1.5%
inhibition at 1 µM (PKC_zeta): 7%
% Inhibition (PKD1): 79%
inhibition at 1 µM (PKD1): > 75%
inhibition at 1 µM (PKD2): 0%
inhibition at 1 µM (PRAK): 6%
inhibition at 1 µM (ROCK1): 9.5%
inhibition at 1 µM (RSK2): 7%
inhibition at 1 µM (SGK3): -0.5%
inhibition at 1 µM (Syk): -0.5%
inhibition at 1 µM (TYK2): 2%
inhibition at 1 µM (mTOR): -1%
inhibition at 1 µM (p70S6K): 9.5%
